Values of other authors in article PMC10650486, “Fluoroquinolone-Based Organic Salts (GUMBOS) with Antibacterial Potential” (International Journal of Molecular Sciences, 2023).

How the values were obtained:
[1] = cited from earlier work
[2] = tested on: E. coli; parameters: method as in earlier work; settings: cited from earlier work
[3] = tested on: S. aureus; parameters: method as in earlier work; settings: cited from earlier work
[4] = tested on: S. aureus; settings: cited from earlier work
[5] = tested on: E. coli O157:H7; parameters: method as in PMID 23447139; settings: same E. coli O157:H7 strain; cited from earlier work

Row | Compound | logKO/W [1] | epidemiologic cutoff value (ECOFF) [2] [mg·L^−1] | epidemiologic cutoff value (ECOFF) [3] [mg·L^−1] | MIC [4] [µg/mL] | concentrations at which growth was inhibited [5] [mg/L]
1 | O=C(O)c1cn(C2CC2)c2cc(N3CCNCC3)c(F)cc2c1=O [[Cip], ciprofloxacin] | −0.13 | 0.06 | 2 | – | –
2 | COc1c(N2C[C@@H]3CCCN[C@@H]3C2)c(F)cc2c(=O)c(C(=O)O)cn(C3CC3)c12 [[Mox], moxifloxacin] | −0.28 | 0.25 | 0.25 | 0.032 to 2 | –
3 | CC1(C)SC2C(NC(=O)C(N)c3ccccc3)C(=O)N2C1C(=O)O.CC1(C)SC2C(NC(=O)C(N)c3ccccc3)C(=O)N2C1C(=O)O.N=C(NCCCCCCNC(=N)NC(=N)Nc1ccc(Cl)cc1)NC(=N)Nc1ccc(Cl)cc1 [chlorhexidine di-ampicillin] | – | – | – | – | 0.06 to 0.12
